Patent publication US20110207926A1, “NOVEL DIHYDROTRIAZINE DERIVATIVE” (HAMARI CHEMICALS, LTD., priority 2008, published 2011)
In brackets after ≈: the same amount, converted by molar mass. Like-named read-outs stand apart in the source and are kept apart here.

What was measured:
Assay in all cases: Bactericidal activity test (MBC measurement)
MRSA ATCC 33591 = type: cell-based, methicillin-resistant Staphylococcus aureus
Experimental: (§1) Each strain was cultured in Trypticase Soy agar medium for 18 to 20 hr, suspended in 0.1% peptone saline, and prepared to OD 600 nm, 1.0 McFarland. The suspension was further diluted with 0.1% peptone saline to give a test bacteria solution (targeted value; 2×10^7 CFU/mL).
(§2) At 0.5, 1 and 3 min from the start of the reaction, a part of the reaction mixture was sampled and mixed with an equal amount of a neutralizing agent (10% Tween 80, 3% lecithin/aqueous solution) to terminate the bactericidal reaction. The reaction mixture was inoculated to a 96 well microplate dispensed with 180 μL of Tripticase Soy liquid medium in advance, and statically cultured at 37° C. for 20 to 24 hr. Thereafter, the presence or absence of growth was visually evaluated, and the minimum concentration at which growth was not observed was taken as the minimal bactericidal concentration (MBC value) of each action time. The numerical values in the Tables show MBC, the unit is μg/mL, S. aureus means Staphylococcus aureus, MRSA means methicillin-resistant Staphylococcus aureus, E. coli means Escherichia coli, and P. aeruginosa means Pseudomonas aeruginosa.

S. aureus ATCC 6538 = type: cell-based, Staphylococcus aureus
Experimental: as §1, §2

P. aeruginosa PAO-1 = type: cell-based, Pseudomonas aeruginosa
Experimental: as §1, §2

P. aeruginosa ATCC 27853 = type: cell-based, Pseudomonas aeruginosa
Experimental: as §1, §2

E. coli ATCC 25922 = type: cell-based, Escherichia coli
Experimental: as §1, §2

[1] = MRSA ATCC 33591, action time 0.5 min
[2] = MRSA ATCC 33591, action time 1 min
[3] = MRSA ATCC 33591, action time 3 min
[4] = S. aureus ATCC 6538, action time 0.5 min
[5] = S. aureus ATCC 6538, action time 1 min
[6] = P. aeruginosa ATCC 27853, action time 0.5 min
[7] = Staphylococcus aureus, 0.5 min, MRSA ATCC 33591, action time 0.5 min, read-out: MBC
[8] = Staphylococcus aureus, 1 min, MRSA ATCC 33591, action time 1 min, read-out: MBC
[9] = Staphylococcus aureus, 0.05 h, MRSA ATCC 33591, action time 3 min, read-out: MBC
[10] = Staphylococcus aureus, ATCC6538, 0.5 min, S. aureus ATCC 6538, action time 0.5 min, read-out: MBC
[11] = Staphylococcus aureus, ATCC6538, 1 min, S. aureus ATCC 6538, action time 1 min, read-out: MBC
[12] = Staphylococcus aureus, ATCC6538, 0.05 h, S. aureus ATCC 6538, action time 3 min, read-out: MBC
[13] = Pseudomonas aeruginosa, PAO1, 0.5 min, P. aeruginosa PAO-1, action time 0.5 min, read-out: MBC
[14] = Pseudomonas aeruginosa, PAO1, 1 min, P. aeruginosa PAO-1, action time 1 min, read-out: MBC
[15] = Pseudomonas aeruginosa, PAO1, 0.05 h, P. aeruginosa PAO-1, action time 3 min, read-out: MBC
[16] = Pseudomonas aeruginosa, ATCC27853, 0.5 min, P. aeruginosa ATCC 27853, action time 0.5 min, read-out: MBC
[17] = Pseudomonas aeruginosa, ATCC27853, 1 min, P. aeruginosa ATCC 27853, action time 1 min, read-out: MBC
[18] = Pseudomonas aeruginosa, ATCC27853, 0.05 h, P. aeruginosa ATCC 27853, action time 3 min, read-out: MBC
[19] = Escherichia coli, ATCC25922, 0.5 min, E. coli ATCC 25922, action time 0.5 min, read-out: MBC
[20] = Escherichia coli, ATCC25922, 1 min, E. coli ATCC 25922, action time 1 min, read-out: MBC
[21] = Escherichia coli, ATCC25922, 0.05 h, E. coli ATCC 25922, action time 3 min, read-out: MBC

Compound	MBC (MRSA ATCC 33591; [7]) [µg/mL]	MBC (MRSA ATCC 33591; [8]) [µg/mL]	MBC (MRSA ATCC 33591; [9]) [µg/mL]	MBC (S. aureus ATCC 6538; [10]) [µg/mL]	MBC (S. aureus ATCC 6538; [11]) [µg/mL]	MBC (S. aureus ATCC 6538; [12]) [µg/mL]	MBC (P. aeruginosa ATCC 27853; [16]) [µg/mL]	MBC (P. aeruginosa ATCC 27853; [17]) [µg/mL]	MBC (P. aeruginosa ATCC 27853; [18]) [µg/mL]	MBC (E. coli ATCC 25922; [19]) [µg/mL]	MBC (E. coli ATCC 25922; [20]) [µg/mL]	MBC (E. coli ATCC 25922; [21]) [µg/mL]	also measured
1,6-dihydro-6,6-dimethyl-N^4-decyl-N^2-benzyl-N^2-methyl-1,3,5-triazine-2,4-diamine gluconate [Example 3]	–	–	–	–	–	–	–	–	–	–	–	–	MBC (MRSA ATCC 33591; [1]): 25 µg/mL; MBC (MRSA ATCC 33591; [2]): 25 µg/mL; MBC (MRSA ATCC 33591; [3]): 25 µg/mL; MBC (S. aureus ATCC 6538; [4]): 25 µg/mL; MBC (S. aureus ATCC 6538; [5]): 25 µg/mL; MBC (P. aeruginosa PAO-1; P. aeruginosa PAO-1, action time 0.5 min): 25 µg/mL; MBC (P. aeruginosa PAO-1; P. aeruginosa PAO-1, action time 1 min): 25 µg/mL; MBC (P. aeruginosa PAO-1; P. aeruginosa PAO-1, action time 3 min): 25 µg/mL; MBC (P. aeruginosa ATCC 27853; [6]): 25 µg/mL; MBC (P. aeruginosa ATCC 27853; P. aeruginosa ATCC 27853, action time 1 min): 25 µg/mL; MBC (P. aeruginosa ATCC 27853; P. aeruginosa ATCC 27853, action time 3 min): 25 µg/mL
CC(=O)O.CCCCCCCCN(C)C1=NC(C)(C)NC(NCc2ccc(Cl)c(Cl)c2)=N1 [Example 2, N^4-octyl-N^4-methyl-1,6-dihydro-6,6-dimethyl-N^2— (3,4-dichlorobenzyl)-1,3,5-triazine-2,4-diamine acetate]	25	25	12.5	25	25	12.5	25	25	12.5	12.5	6.25	6.25	MBC (P. aeruginosa PAO-1; [13]): 25 µg/mL; MBC (P. aeruginosa PAO-1; [14]): 25 µg/mL; MBC (P. aeruginosa PAO-1; [15]): 12.5 µg/mL
CC(=O)O.CCCCCCCCCNC1=NC(C)(C)NC(N(C)Cc2ccccc2)=N1 [Example 4, 1,6-dihydro-6,6-dimethyl-N^4-nonyl-N^2-benzyl-N^2-methyl-1,3,5-triazine-2,4-diamine acetate]	25	–	–	100	–	–	25	–	–	12.5	–	–	MBC (P. aeruginosa PAO-1; [13]): 25 µg/mL
CC(=O)O.CCCCCCCCN(C)C1=NC(C)(C)NC(N(C)Cc2ccccc2)=N1 [Example 6, N^4-octyl-N^4-methyl-1,6-dihydro-6,6-dimethyl-N^2-benzyl-N^2-methyl-1,3,5-triazine-2,4-diamine acetate]	200	–	–	> 200	–	–	25	–	–	25	–	–	MBC (P. aeruginosa PAO-1; [13]): 25 µg/mL
CCCCCCCCCCCCNC1=NC(N2CCOCC2)=NCN1 [Example 8, 1,6-dihydro-N-dodecyl-4-(morpholin-4-yl)-1,3,5-triazine-2-amine]	37.5 (≈ 107 µM)	18.8 (≈ 53.5 µM)	6.3 (≈ 17.9 µM)	37.5 (≈ 107 µM)	25 (≈ 71.1 µM)	9.4 (≈ 26.7 µM)	12.5 (≈ 35.6 µM)	12.5 (≈ 35.6 µM)	9.4 (≈ 26.7 µM)	18.8 (≈ 53.5 µM)	12.5 (≈ 35.6 µM)	9.4 (≈ 26.7 µM)	–
CC(=O)O.CCCCCCCCCCCCNC1=NC(N2CCN(C)CC2)=NC(C)(C)N1 [Example 10, N-dodecyl-6,6-dimethyl-4-(4-methylpiperazin-1-yl)-1,6-dihydro-1,3,5-triazine-2-amine acetate]	50	50	12.5	75	50	12.5	25	18.8	18.8	25	25	25	–
CC(=O)O.CCCCCCCCCCNC1=NC(N2CCCCC2)=NC(C)(C)N1 [Example 11, N-decyl-6,6-dimethyl-4-(piperidin-1-yl)-1,6-dihydro-1,3,5-triazine-2-amine acetate]	75	62.5	31.3	50	37.5	25	25	25	18.8	18.8	18.8	18.8	–
CCCCCCCCCCNC1=NC(N2Cc3ccccc3C2)=NC(C)(C)N1 [Example 12, N-decyl-4-(1,3-dihydro-2H-isoindol-2-yl)-6,6-dimethyl-1,6-dihydro-1,3,5-triazine-2-amine]	25 (≈ 65.2 µM)	12.5 (≈ 32.6 µM)	6.3 (≈ 16.4 µM)	25 (≈ 65.2 µM)	18.8 (≈ 49 µM)	4.7 (≈ 12.3 µM)	37.5 (≈ 97.8 µM)	37.5 (≈ 97.8 µM)	18.8 (≈ 49 µM)	18.8 (≈ 49 µM)	18.8 (≈ 49 µM)	15.7 (≈ 40.9 µM)	–
CC(=O)O.CCCCCCCCNC1=NC(C)(C)NC(N(CC)Cc2ccccc2)=N1 [Example 13, 1,6-dihydro-6,6-dimethyl-N^4-octyl-N^2-benzyl-N^2-ethyl-1,3,5-triazine-2,4-diamine acetate]	62.5	37.5	18.8	50	25	18.8	18.8	18.8	18.8	25	18.8	12.5	–
CCCCCCCCNC1=NC(C)(C)NC(N(C)CCc2ccccc2)=N1 [Example 14, 1,6-dihydro-6,6-dimethyl-N^4-octyl-N^2-methyl-N^2-(2-phenylethyl)-1,3,5-triazine-2,4-diamine]	62.5 (≈ 168 µM)	31.3 (≈ 84.2 µM)	15.7 (≈ 42.3 µM)	75 (≈ 202 µM)	37.5 (≈ 101 µM)	18.8 (≈ 50.6 µM)	25 (≈ 67.3 µM)	18.8 (≈ 50.6 µM)	12.5 (≈ 33.6 µM)	25 (≈ 67.3 µM)	25 (≈ 67.3 µM)	12.5 (≈ 33.6 µM)	–
CCCCCCCCCCNC1=NC(C)(C)NC(N(C)CCC)=N1 [Example 16, 1,6-dihydro-6,6-dimethyl-N^4-decyl-N^2-methyl-N^2-propyl-1,3,5-triazine-2,4-diamine]	100 (≈ 296 µM)	37.5 (≈ 111 µM)	18.8 (≈ 55.7 µM)	75 (≈ 222 µM)	50 (≈ 148 µM)	25 (≈ 74.1 µM)	25 (≈ 74.1 µM)	18.8 (≈ 55.7 µM)	18.8 (≈ 55.7 µM)	18.8 (≈ 55.7 µM)	18.8 (≈ 55.7 µM)	9.4 (≈ 27.8 µM)	–
CCCCCCCCCCCNC1=NC(C)(C)NC(N(C)Cc2ccc(N)cc2)=N1.Cl.Cl [Example 17, 1,6-dihydro-6,6-dimethyl-N^4-undecyl-N^2-(4-aminobenzyl)-N^2-methyl-1,3,5-triazine-2,4-diamine dihydrochloride]	18.8	12.5	6.3	25	15.7	7.8	37.5	18.8	9.4	25	18.8	12.5	–
CCCCCCCCCCCCCCN(C)C1=NC(C)(C)NC(N)=N1.Cl [Example 18, N^4-tetradecyl-N^4-methyl-1,6-dihydro-6,6-dimethyl-1,3,5-triazine-2,4-diamine hydrochloride]	18.8	9.4	4.7	18.8	12.5	4.7	18.8	12.5	9.4	12.5	12.5	6.3	–
CCCCCCCCN(C)C(=N)NC(=N)NCc1ccc(Cl)c(Cl)c1.Cl [Example 28, N^5-octyl-N^5-methyl-N^1-(3,4-dichlorobenzyl)biguanide hydrochloride]	50	12.5	12.5	25	12.5	12.5	25	25	12.5	6.25	6.25	6.25	MBC (P. aeruginosa PAO-1; [13]): 12.5 µg/mL; MBC (P. aeruginosa PAO-1; [14]): 12.5 µg/mL; MBC (P. aeruginosa PAO-1; [15]): 6.25 µg/mL
N=C(NCCCCCCNC(=N)NC(=N)Nc1ccc(Cl)cc1)NC(=N)Nc1ccc(Cl)cc1.O=C(O)[C@H](O)[C@@H](O)[C@H](O)[C@H](O)CO.O=C(O)[C@H](O)[C@@H](O)[C@H](O)[C@H](O)CO [control, chlorhexidine gluconate, reference compound]	–	–	–	–	–	–	–	–	–	–	–	–	MBC (MRSA ATCC 33591; [1]): >200 µg/mL; MBC (MRSA ATCC 33591; [2]): >200 µg/mL; MBC (MRSA ATCC 33591; [3]): 200 µg/mL; MBC (S. aureus ATCC 6538; [4]): >200 µg/mL; MBC (S. aureus ATCC 6538; [5]): >200 µg/mL; MBC (S. aureus ATCC 6538; S. aureus ATCC 6538, action time 3 min): >200 µg/mL; MBC (P. aeruginosa ATCC 27853; [6]): >200 µg/mL; MBC (E. coli ATCC 25922; E. coli ATCC 25922, action time 0.5 min): 100 µg/mL
